Reference: ChEMBL document CHEMBL1201862, “PubChem BioAssay data set” (2004)
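The compound was tested at five concentrations on cells cultured in 96-well plates, with a 48-hour exposure period. The concentration for 50% growth inhibition is given as GI50.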 Activity calls are given as the source filed them. Rule as the data show it: active = GI50 up to about 1.1 µM and inactive = higher.

Tests used:
Assay in all cases: growth of human tumour cells (NCI), 48 h
ACHN = test system: ACHN
EKVX = test system: EKVX
HCT-15 = test system: HCT-15
HOP-62 = test system: HOP-62
HOP-92 = test system: HOP-92
KM12 = test system: KM12
LOX IMVI = test system: LOX IMVI
M14 = test system: M14
NCI-H460 = test system: NCI-H460
OVCAR-5 = test system: OVCAR-5
OVCAR-8 = test system: OVCAR-8
SF-268 = test system: SF-268
SK-MEL-28 = test system: SK-MEL-28
SK-MEL-5 = test system: SK-MEL-5
SN12C = test system: SN12C
UACC-257 = test system: UACC-257
UO-31 = test system: UO-31

Structure (SMILES)	GI50 (ACHN)	GI50 (EKVX)	GI50 (HCT-15) [µM]	GI50 (HOP-62)	GI50 (HOP-92)	GI50 (KM12)	GI50 (LOX IMVI)	GI50 (M14)	GI50 (NCI-H460)	GI50 (OVCAR-5)	GI50 (OVCAR-8)	GI50 (SF-268)	GI50 (SK-MEL-28)	GI50 (SK-MEL-5)	GI50 (SN12C)	GI50 (UACC-257)	GI50 (UO-31)
O=C(O/N=C1/CCC/C1=C\c1ccccc1)c1ccccc1	> 100 µM (inactive)	29.8 µM (inactive)	59.6	> 100 µM (inactive)	> 100 µM (inactive)	> 100 µM (inactive)	61.8 µM (inactive)	> 100 µM (inactive)	> 10 µM (inactive)	> 100 µM (inactive)	88.7 µM (inactive)	38.7 µM (inactive)	> 100 µM (inactive)	44.6 µM (inactive)	> 100 µM (inactive)	> 100 µM (inactive)	–
CCC12CCCN(Cc3ccccc3)C1c1c(n(C)c3ccccc13)CC2 (stereo unspecified)	246 µM (inactive)	> 253 µM (inactive)	185	> 253 µM (inactive)	110 µM (inactive)	86.1 µM (inactive)	236 µM (inactive)	–	> 253 µM (inactive)	–	> 253 µM (inactive)	199 µM (inactive)	> 253 µM (inactive)	69.3 µM (inactive)	149 µM (inactive)	107 µM (inactive)	–
NC(=O)c1cn(C2OC(CO)C(O)C2O)c(=O)[nH]c1=O (stereo unspecified)	> 100 µM (inactive)	> 100 µM (inactive)	> 100	> 100 µM (inactive)	> 100 µM (inactive)	> 100 µM (inactive)	> 100 µM (inactive)	> 100 µM (inactive)	> 100 µM (inactive)	> 100 µM (inactive)	> 100 µM (inactive)	> 100 µM (inactive)	> 100 µM (inactive)	> 100 µM (inactive)	–	> 100 µM (inactive)	> 100 µM (inactive)
c1ccc(NC[Si]23OCCN(CCO2)CCO3)cc1	> 100 µM (inactive)	> 100 µM (inactive)	–	–	> 100 µM (inactive)	> 100 µM (inactive)	–	–	> 100 µM (inactive)	> 100 µM (inactive)	> 100 µM (inactive)	> 100 µM (inactive)	> 100 µM (inactive)	> 100 µM (inactive)	> 100 µM (inactive)	> 100 µM (inactive)	> 100 µM (inactive)
CC(C)OC(=O)C1=C(O)c2ccccc2S(=O)(=O)N1	> 100 µM (inactive)	> 100 µM (inactive)	> 100	> 100 µM (inactive)	–	> 100 µM (inactive)	> 100 µM (inactive)	> 100 µM (inactive)	> 100 µM (inactive)	> 100 µM (inactive)	> 100 µM (inactive)	> 100 µM (inactive)	> 100 µM (inactive)	> 100 µM (inactive)	> 100 µM (inactive)	> 100 µM (inactive)	–
CC(=O)N1C/C(=C\c2ccccc2)C(=O)/C(=C/c2ccccc2)C1	16.9 µM (inactive)	24 µM (inactive)	8.38	11.4 µM (inactive)	–	3.65 µM (inactive)	3.43 µM (inactive)	6.98 µM (inactive)	17.4 µM (inactive)	19.4 µM (inactive)	7.8 µM (inactive)	23.2 µM (inactive)	13.2 µM (inactive)	6.19 µM (inactive)	14.4 µM (inactive)	6.9 µM (inactive)	19.7 µM (inactive)
CC(=O)Oc1c2c(c(OC(C)=O)c3c1n(C(C)=O)c1ccccc1n3C(C)=O)n(C(C)=O)c1ccccc1n2C(C)=O	9.16 µM (inactive)	> 10 µM (inactive)	3.27	8.17 µM (inactive)	–	3.76 µM (inactive)	2.56 µM (inactive)	4.44 µM (inactive)	3.68 µM (inactive)	–	2.95 µM (inactive)	7.05 µM (inactive)	2.89 µM (inactive)	7.76 µM (inactive)	3.27 µM (inactive)	3.42 µM (inactive)	12.6 µM (inactive)
COc1ccc(C(=O)O)c(Cc2cccc3ccccc23)c1	> 100 µM (inactive)	> 100 µM (inactive)	> 100	> 100 µM (inactive)	–	> 100 µM (inactive)	> 100 µM (inactive)	> 100 µM (inactive)	> 100 µM (inactive)	> 100 µM (inactive)	> 100 µM (inactive)	> 100 µM (inactive)	> 100 µM (inactive)	> 100 µM (inactive)	> 100 µM (inactive)	> 100 µM (inactive)	> 100 µM (inactive)
CC(C)(Oc1ccc2c(=O)cc(-c3ccc(Cl)cc3)oc2c1)C(=O)Nc1c(Cl)cccc1Cl	–	> 100 µM (inactive)	24.2	> 100 µM (inactive)	> 100 µM (inactive)	> 100 µM (inactive)	> 100 µM (inactive)	> 100 µM (inactive)	> 100 µM (inactive)	> 100 µM (inactive)	> 100 µM (inactive)	> 100 µM (inactive)	> 100 µM (inactive)	96.6 µM (inactive)	–	> 100 µM (inactive)	25 µM (inactive)
